From patent US7763596B2, “Selective glucocorticoid receptor agonists” (The University of Manchester, priority 2000, dated 2010)
“Also recorded” adds a separate entry of the source.

Tests used:
glucocorticoid receptor [1] = biological target: T1, glucocorticoid receptor (Homo sapiens, UniProt P04150); assay: Type II antagonist activity assay: competition of dexamethasone transactivation; type: cell-based; set-up: expressed in transfected cells; host or cells: COS 7 (African green monkey kidney, deficient in endogenous GR); details: COS7 cells stimulated with 1 nM dexamethasone
T1 sequence (P04150 1-777): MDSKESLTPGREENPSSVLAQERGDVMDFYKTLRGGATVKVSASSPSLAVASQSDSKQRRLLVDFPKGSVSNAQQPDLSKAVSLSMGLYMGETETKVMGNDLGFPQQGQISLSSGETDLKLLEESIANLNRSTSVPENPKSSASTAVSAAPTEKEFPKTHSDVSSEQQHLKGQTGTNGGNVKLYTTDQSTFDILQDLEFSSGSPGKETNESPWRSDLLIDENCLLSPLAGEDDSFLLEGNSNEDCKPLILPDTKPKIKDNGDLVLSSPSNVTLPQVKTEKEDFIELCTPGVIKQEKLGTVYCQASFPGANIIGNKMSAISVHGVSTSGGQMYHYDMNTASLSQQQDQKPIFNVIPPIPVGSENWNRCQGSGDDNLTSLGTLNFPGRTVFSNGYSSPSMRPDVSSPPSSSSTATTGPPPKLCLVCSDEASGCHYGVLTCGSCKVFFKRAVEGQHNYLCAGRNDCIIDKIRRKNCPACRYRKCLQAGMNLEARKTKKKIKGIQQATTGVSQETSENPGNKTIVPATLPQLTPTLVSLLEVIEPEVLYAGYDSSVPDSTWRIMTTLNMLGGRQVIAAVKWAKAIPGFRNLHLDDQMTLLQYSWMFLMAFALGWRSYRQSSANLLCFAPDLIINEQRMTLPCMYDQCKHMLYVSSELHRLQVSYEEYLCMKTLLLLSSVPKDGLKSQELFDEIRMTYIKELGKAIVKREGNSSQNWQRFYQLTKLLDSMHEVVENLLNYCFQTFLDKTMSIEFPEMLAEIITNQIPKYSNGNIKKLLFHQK
Procedure: A type II antagonist should be able to compete agonist activity. As an antagonist has no ability to transactivate, competition can be measured by inhibition of an agonist in a transactivation assay.
As with the standard transactivation assay previously described, the GR was artificially expressed in a cell line lacking endogenous GR and a GRE “driving” a luciferase reporter gene was used to measure ligand dependent activation. COS7 cells were transfected with 1 μg pcDNA3-GR and 3 μg AH3-Luc per 10 cm tissue culture dish. The cells were plated out in to 24 well plates after transfection and the steroids were added immediately. […] Certain steroids from FIG. 2A were added at the same concentration to all sample wells. After 18 hour incubation the cells were lysed and a luciferase assay was performed.

[2] = system: tyrosine amino transferase (TAT); assay: Quantitation of tyrosine amino transferase (TAT) in the livers of air pouch mice; type: in vivo; details: 3 μg i.p., FIG. 22
Procedure: (§1) At time 0, mice received either 0.5 ml of zymosan (1 mg) (group A, B, C) injected locally into the air-pouch. Group D and E were left untreated at this time-point. At 4 h post-zymosan the animals were placed in CO2. Air-pouches were then washed with 2 ml of PBS containing 3 mM EDTA, and livers were recovered and snap frozen for later analysis.
Quantitation of Tyrosine Amino Transferase (TAT) Protein in the Livers: In this method a colourimetric approach is used to quantitate TAT activity. The TAT enzyme catalyses the following reaction: L-tyrosine+2-oxoglutarate⇄4-hydroxyphenylpyruvate (pHPP)+L-glutamate
This reaction also requires pyridoxal phosphate (PLP) as a co-factor. Strong alkali conditions can then be used to convert pHPP to p-hydroxybenzaldehyde (pHBA) and oxalate. The amount of pHBA can then be assessed by measuring its absorbance at 331 nm (extinction coefficient 19,900 M^−1cm^−1) this figure is then assumed to be directly proportional to TAT activity. Livers were homogenized and the cells were stored on ice. […]
For each reaction a control reaction was set up without the ketoglutarate. […] The samples were incubated at room temperature for a further 30 mins and then the absorbance of each sample was assessed at 331 nm on a spectrophotometer (Ultrospec III, Pharmacia).

glucocorticoid receptor [3] = biological target: T1, glucocorticoid receptor; assay: Selectivity for transrepression over transactivation in vitro; type: cell-based; set-up: expressed in transfected cells; host or cells: COS 7 (African green monkey kidney, deficient in endogenous GR)
[4] = system: other members of the steroid receptor super family; assay: Binding to other members of the steroid receptor super family
[5] = system: zymosan induced neutrophil migration; assay: Air pouch model of inflammation, zymosan induced neutrophil migration; type: in vivo, mice
Procedure: Male outbred Swiss albino mice (18-20 g body weight) were purchased from Bantin and Kingman (T.O. strain; Hull, Humberside) and maintained on a standard chow pellet diet with tap water ad libitum and a 12:00 h light/dark cycle. All animals were housed for 3 days prior to experimentation to allow body weight to reach 20-22 g. On the day of experiment mice ranged from 24-26 g.
Air-pouches were formed on the back of mice by air injection (2.5 ml s.c.) on day 0 and day 3 (Perretti and Flower, 1993).
Zymosan A was allowed to defrost at room temperature for 30 min prior to being added to sterile PBS at a concentration of 2 mg/ml forming a homogenous suspension.
as §1
The number of migrated leukocytes (≧90% polymorphonuclear leukocytes, PMN) was determined in the lavage fluid from each air-pouch, by taking an aliquot (100 μl) of the lavage fluid and diluting 1:10 in Turk's solution (0.01% crystal violet in 3% acetic acid). The samples were then vortexed and 10 μl of the stained cell solution were placed in a Neubauer haematocymometer and neutrophils numbers counted using a light microscope (Olympus B061).
Neutrophil numbers were compared between groups using ANOVA plus the Bonferroni test. TAT levels were compared using a t-test.

SMILES: Cc1ccc(NC(=O)C2(O)C(C)CC3C4CCC5=CC(=O)C=CC5(C)C4(F)C(O)CC32C)cc1 (stereo not drawn) [Compound O]
- competition of dexamethasone transactivation (glucocorticoid receptor [1]): failed to repress dexamethasone transactivation

SMILES: CC1CC2C3CCC4=CC(=O)C=CC4(C)C3(F)C(O)CC2(C)C1(O)C(=O)NCCCO (stereo not drawn) [L]
- competition of dexamethasone transactivation (glucocorticoid receptor [1]): failed to repress dexamethasone transactivation

SMILES: CCCNC(=O)C1(O)C(C)CC2C3CCC4=CC(=O)C=CC4(C)C3(F)C(O)CC21C (stereo not drawn) [Compound G]
- liver TAT level compared with vehicle control groups [2]: does not cause-induction; also recorded: did not reduce the level of TAT
- selectivity for transrepression over transactivation (glucocorticoid receptor [3]): approximately 1000 fold
- binding to other members of the steroid receptor super family [4]: not to bind to other members of the steroid receptor super family
- Neutrophils (10^6 per mouse) ([5]; 3 μg i.p. at -1 h, Zymosan 1 mg into air-pouch, 4 h time-point, mean ± S.E. of 8 mice): 6.33 ± 0.79 * 10^6 per mouse
- reduction of neutrophil accumulation ([5]; 3 μg i.p., zymosan air pouch, 4 h): ~30%

SMILES: CCCOC(=O)C1(O)C(C)CC2C3CCC4=CC(=O)C=CC4(C)C3(F)C(O)CC21C (stereo not drawn) [R]
- competition of dexamethasone transactivation (glucocorticoid receptor [1]): failed to repress dexamethasone transactivation

SMILES: CC1CC2C3CCC4=CC(=O)C=CC4(C)C3(F)C(O)CC2(C)C1(O)C(=O)NCCC(=O)O (stereo not drawn) [Q]
- competition of dexamethasone transactivation (glucocorticoid receptor [1]): failed to repress dexamethasone transactivation
